{"source": "patent US6635802B1", "about": "“Nuclear transfer using cells cultured in serum starvation media containing apoptosis inhibitors” (The Texas A&M University System, priority 2000, dated 2003)", "molecules": {"B1": {"name": "α2-macroglobulin (protein, UniProt P01023 24-1474, looked up)", "Alpha-2-macroglobulin": "SVSGKPQYMVLVPSLLHTETTEKGCVLLSYLNETVTVSASLESVRGNRSLFTDLEAENDVLHCVAFAVPKSSSNEEVMFLTVQVKGPTQEFKKRTTVMVKNEDSLVFVQTDKSIYKPGQTVKFRVVSMDENFHPLNELIPLVYIQDPKGNRIAQWQSFQLEGGLKQFSFPLSSEPFQGSYKVVVQKKSGGRTEHPFTVEEFVLPKFEVQVTVPKIITILEEEMNVSVCGLYTYGKPVPGHVTVSICRKYSDASDCHGEDSQAFCEKFSGQLNSHGCFYQQVKTKVFQLKRKEYEMKLHTEAQIQEEGTVVELTGRQSSEITRTITKLSFVKVDSHFRQGIPFFGQVRLVDGKGVPIPNKVIFIRGNEANYYSNATTDEHGLVQFSINTTNVMGTSLTVRVNYKDRSPCYGYQWVSEEHEEAHHTAYLVFSPSKSFVHLEPMSHELPCGHTQTVQAHYILNGGTLLGLKKLSFYYLIMAKGGIVRTGTHGLLVKQEDMKGHFSISIPVKSDIAPVARLLIYAVLPTGDVIGDSAKYDVENCLANKVDLSFSPSQSLPASHAHLRVTAAPQSVCALRAVDQSVLLMKPDAELSASSVYNLLPEKDLTGFPGPLNDQDNEDCINRHNVYINGITYTPVSSTNEKDMYSFLEDMGLKAFTNSKIRKPKMCPQLQQYEMHGPEGLRVGFYESDVMGRGHARLVHVEEPHTETVRKYFPETWIWDLVVVNSAGVAEVGVTVPDTITEWKAGAFCLSEDAGLGISSTASLRAFQPFFVELTMPYSVIRGEAFTLKATVLNYLPKCIRVSVQLEASPAFLAVPVEKEQAPHCICANGRQTVSWAVTPKSLGNVNFTVSAEALESQELCGTEVPSVPEHGRKDTVIKPLLVEPEGLEKETTFNSLLCPSGGEVSEELSLKLPPNVVEESARASVSVLGDILGSAMQNTQNLLQMPYGCGEQNMVLFAPNIYVLDYLNETQQLTPEIKSKAIGYLNTGYQRQLNYKHYDGSYSTFGERYGRNQGNTWLTAFVLKTFAQARAYIFIDEAHITQALIWLSQRQKDNGCFRSSGSLLNNAIKGGVEDEVTLSAYITIALLEIPLTVTHPVVRNALFCLESAWKTAQEGDHGSHVYTKALLAYAFALAGNQDKRKEVLKSLNEEAVKKDNSVHWERPQKPKAPVGHFYEPQAPSAEVEMTSYVLLAYLTAQPAPTSEDLTSATNIVKWITKQQNAQGGFSSTQDTVVALHALSKYGAATFTRTGKAAQVTIQSSGTFSSKFQVDNNNRLLLQQVSLPELPGEYSMKVTGEGCVYLQTSLKYNILPEKEEFPFALGVQTLPQTCDEPKAHTSFQISLSVSYTGSRSASNMAIVDVKMVSGFIPLKPTVKMLERSNHVSRTEVSSNHVLIYLDKVSNQTLSLFFTVLQDVPVRDLKPAIVKVYDYYETDEFAIAEYNAPCSKDLGNA"}}, "key": {"[1]": {"system": "porcine PGCs", "assay": "In vitro culture of porcine PGCs on STO feeder cells with apoptosis inhibitors; AP-stained colonies counted", "format": "cell-based", "conditions": "for Effect of timing of exposure on number of colonies, in words: all 8 days vs first 4 days vs last 4 days", "text": "Porcine fetuses were collected from hysterectomized uteri of four-way crossbred gilts (DeKalb, Ill.) between day 25 and 30 of pregnancy (estrus=day 0). Fetuses were washed in phosphate buffered saline supplemented with BSA (0.4%, Sigma St. Louis, Mo.) and penicillin/streptomycin (1%, Gibco BRL, Rockville, Md.) (PBS/BSA/PS). Urogenital ridges, appeared as longitudinal protrusions along the medial mesonephric surface, were isolated and washed in PBS/BSA/PS followed by several washes in PES medium before PGC collection. The PES medium was comprised of 50:50 mixture of Dulbecco's modified Eagle's medium (DMEM) and Ham's F10 medium supplemented with 15% fetal bovine serum (FBS), L-glutamine (2 mM), β-mercaptoethanol (0.1 mM), MEM non-essential amino acids (1%) and penicillin/streptomycin (1%). All media and supplements were purchased from Gibco BRL.\nPGCs were isolated by incubation in 0.25% trypsin/1 mM EDTA solution (Gibco BRL) followed by gentle pipetting or by mechanical dissociation of ridges into small fragments followed by gentle pipetting. After tissue disruption, cells were centrifuged for 5 minutes at 250 rpm to remove tissue debris and clumps. The supernatant containing most the single cells was collected and centrifuged at 1000 rpm for 10 minutes.\nPGCs were resuspended with PES medium containing cytokines, such as soluble recombinant human stem cell factor (SCF; 40 ng/ml), human basic fibroblast growth factor (bFGF; 20 ng/ml), and human leukemia inhibitory factor (LIF; 20 ng/ml). All cytokines were obtained from R&D Systems (Minneapolis, Minn.). Cell suspensions were plated on irradiated mouse STO feeder cells (3×10^6 cells per 35 mm well), prepared as previously described (Piedrahita et al., 1998) and cultured in humidified environment of 5% CO2 in air, 38° C. PGC-derived colonies with ES-like morphology after 7-10 days of culture are passaged to fresh feeders for establishment of cell lines. PGC-derived colonies were dissociated with 0.25% trypsin/1 mM EDTA (Gibco BRL) for 10 minutes. […] To identify PGC-derived cells and the state of differentiation were determined by morphology and by expression of alkaline phosphatase (AP).\nAP activity was determined as described previously (Moore and Piedrahita, 1997). Briefly, culture plates were rinsed twice in PBS and fixed in 4% formaldehyde in PBS for 15 minutes at room temperature. Fixed cells were washed twice with PBS and stained in naphtol AS-MX phosphate (200 μg/ml; Sigma) and Fast Red TR salt (1 mg/ml; Sigma) in 100 mM Tris buffer, pH 8.2 for 30 minutes at room temperature. Staining was terminated by washing cultures in PBS. Specificity of AP activity was determined by staining in the presence of the AP inhibitor, tetramisole (500 μM; Sigma). Mouse ES cells also were stained as control for AP activity.\nTo determine the effect of apoptosis inhibitors on survival of porcine PGCs in vitro, freshly isolated PGCs were cultured as described above with or without apoptosis inhibitors, α2-macroglobulin (MAC: broad range protease inhibitor, 1.4 pM) and N-acetylcysteine (NAC: antioxidant, 1 mM). After 7-10 days of culture, colonies were stained for AP activity and counted. Studies were performed at least three replicates. The data were normalized to the treatment with no inhibitors added (control) and tested for homogeneity of variance and analyzed by ANOVA. Mean separation is accomplished by Fisher's protected LSD using software SuperANOVA (Abacus Concepts).\nDose titration of MAC (0.35, 0.7, 1.4, and 2.8 pM) and NAC (0.25, 0.5, 1.0, and 2.0 mM), to determine the optimal concentration of inhibitors, were performed."}, "[2]": {"system": "Bovine embryonic fibroblasts (BEF)", "assay": "TUNEL assay (flow cytometry) of serum starved bovine embryonic fibroblasts", "format": "cell-based", "conditions": "MAC 0.7 pM, NAC 1 mM, GSH 2 mM; for 5-day Apoptosis (%): serum starvation 5 days, serum starved without inhibitor 15.0; for 10-day Apoptosis (%): serum starvation 10 days, serum starved without inhibitor 20.4", "method": "Bovine embryonic fibroblasts (BEF) were isolated from the fetus with 3-5 cm crown-rump length. After two or three passages, cells were plated one million cells per plate (100 mm) with growth medium (DMEM) with 2 mM L-glutamine, 0.1 mM β-mercaptoethanol and 10% FBS. After 24 hours, cells were washed with PBS 3-5 times and then serum starvation medium with 0.5% FBS was added. In addition, cells were treated with serum starvation medium containing apoptosis inhibitors such as a2-macroglobulin (0.7 pM), N-acetylcysteine (1 mM) and glutathione (2 mM). Cells were treated with serum starvation with or without apoptosis inhibitors for 5 or 10 days. Then cells were trypsinized and counted.\nAfter counting, cells were fixed and stained according to protocols with the APO-BRDU kit (Phoenix Flow Systems, San Diego, Calif.). Briefly, cells were fixed in 1% paraformaldehyde in PBS on ice for 15 minutes, washed in PBS, and fixed in 70% ethanol and stored at −20° C. until use. After removing the fixative, cells were washed twice and suspended in 50 μl of labeling solution containing Br-dUTP (bromolated deoxyuridine triphosphate) and TdT (terminal deoxynucleotidyl transferase) for 60 minutes at 37° C. TdT catalyzes the addition of Br-dUTP to the 3′-OH ends of DNA strand breaks in a template independent manner. To determine base line fluorescence, control cells were incubated without TdT. After rinsing, cells were incubated with an anti-BrdU monoclonal antibody conjugated to fluorescein for 30 minutes in the dark at room temperature; apoptotic cells which contain many free 3′-OH ends are intensely labeled, while non-apoptotic cells whose DNA is largely intact have little Br-dUTP incorporation and remain unlabeled. Following counterstaining with a propidium iodide/RNase A solution for 30 minutes in the dark, which allows simultaneous analysis of cell cycle position and apoptosis, cells were analyzed on a FACSCalibur™ flow cytometer (Becton Dickinson, San Jose, Calif.). Fluorescence emissions were measured at 582±21 nm for propidium iodide and 530±15 nm for fluorescein, without spectral compensation, after excitation at 488 nm by an argon-ion laser. For analysis, gates were set so that less than 2% of samples incubated without TdT were positive. Any event above this gate was deemed TUNEL positive for samples incubated with TdT."}}}
{"molecule": "CC(=O)N[C@@H](CS)C(=O)O", "note": "[NAC, N-acetylcysteine]", "values": [{"measurement": "Normalized # of Colonies + SE", "setting": "[1]; 0.25 mM NAC, normalized to control, Table 2 dose response", "value": "1.23 ± 0.14"}, {"measurement": "Normalized # of Colonies + SE", "setting": "[1]; 0.5 mM NAC, normalized to control, Table 2 dose response", "value": "1.75 ± 0.13"}, {"measurement": "Normalized # of Colonies + SE", "setting": "[1]; 1.0 mM NAC, normalized to control, Table 2 dose response", "value": "2.07 ± 0.19"}, {"measurement": "Normalized # of Colonies + SE", "setting": "[1]; 2.0 mM NAC, normalized to control, Table 2 dose response", "value": "2.21 ± 0.04"}, {"measurement": "Normalized # of Colonies + SE", "setting": "[1]; NAC (1.0 mM) 1-4 days (FH), Table 5 timing study", "value": "2.86 ± 0.55"}, {"measurement": "Normalized # of Colonies + SE", "setting": "[1]; NAC (1.0 mM) 5-8 days (LH), Table 5 timing study", "value": "1.01 ± 0.035"}, {"measurement": "Normalized # of Colonies + SE", "setting": "[1]; NAC (1.0 mM) all 8 days, Table 5 timing study", "value": "2.64 ± 0.49"}, {"measurement": "Normalized # of Colonies + SE", "setting": "[1]; Table 7 antioxidants: NAC 1.0 mM, BHA 0.1 mM, BPN 1.0 mM, CIM 2.0 mM, normalized to control", "value": "1.93 ± 0.10"}, {"measurement": "Effect of timing of exposure on number of colonies, in words", "setting": "[1]", "value": "Addition at later days has little effect"}, {"measurement": "Concentration of maximal response (number of colonies) over the doses studied", "setting": "[1]; doses 0.25-2.0 mM studied", "value": 2.0, "unit": "mM"}, {"measurement": "5-day Apoptosis (%)", "setting": "[2]", "value": 1.8, "unit": "%"}, {"measurement": "10-day Apoptosis (%)", "setting": "[2]", "value": 1.1, "unit": "%"}]}
{"molecule": "B1", "values": [{"measurement": "Normalized # of Colonies + SE", "setting": "[1]; 0.35 pM MAC, normalized to control without inhibitor, Table 1 dose response", "value": "1.43 ± 0.03"}, {"measurement": "Normalized # of Colonies + SE", "setting": "[1]; 0.7 pM MAC, normalized to control, Table 1 dose response", "value": "1.90 ± 0.08"}, {"measurement": "Normalized # of Colonies + SE", "setting": "[1]; 1.40 pM MAC, normalized to control, Table 1 dose response", "value": "1.50 ± 0.01"}, {"measurement": "Normalized # of Colonies + SE", "setting": "[1]; 2.8 pM MAC, normalized to control, Table 1 dose response", "value": "1.16 ± 0.06"}, {"measurement": "Normalized # of Colonies + SE", "setting": "[1]; MAC (0.7 pM) all 8 days, Table 4 timing study", "value": "1.64 ± 0.08"}, {"measurement": "Number of first passage colonies, in words", "setting": "[1]; added to the culture media", "value": "increased the number of first passage colonies"}, {"measurement": "Effect of timing of exposure on number of colonies, in words", "setting": "[1]", "value": "maximal effects result when MAC is present throughout the incubation period"}, {"measurement": "Concentration of maximal response (number of colonies)", "setting": "[1]; doses 0.35-2.8 pM studied", "value": 0.7, "unit": "pM"}, {"measurement": "Effect upon second passage, in words", "setting": "[1]; independent of previous culture in the presence of the molecule", "value": "protective effect"}, {"measurement": "Effect on the number of PGCs, in words", "setting": "[1]; single concentrations of Tables 6 and 7", "value": "induced the most, and significantly, positive effect"}, {"measurement": "5-day Apoptosis (%)", "setting": "[2]", "value": 3.9, "unit": "%"}, {"measurement": "10-day Apoptosis (%)", "setting": "[2]", "value": 4.6, "unit": "%"}]}
